Source: publication PMC6767236, “Selective Cannabinoid 2 Receptor Agonists as Potential Therapeutic Drugs for the Treatment of Endotoxin-Induced Uveitis” (Molecules, 2019)
≈ marks a conversion by molar mass, not a printed value. Where two headings read alike, the source gives them in different places.

How the values were obtained:
[1] = parameters: method as in earlier work; conditions: mouse, i.v., 0.5-1 mg/kg; * previously published; cited from earlier work
[2] = * previously published; cited from earlier work
human P-gp = conditions: human P-gp; * previously published; cited from earlier work
[3] = human hepatocytes; * previously published; cited from earlier work
[4] = mouse, * previously published, cited from earlier work
[5] = Experimental: The GSH adduct formation test aims for the identification of molecules which bear the risk of forming reactive metabolites that might trigger drug-induced liver injury and drug-induced hypersensitivity reactions in patients. The compounds are incubated with liver microsomes to assess reactive metabolite formation. Glutathione is added as a nucleophile to convert eventually formed reactive species into a stable conjugate that can be analyzed by mass spectrometry. Details on the assay have been reported in Brink et al. (2014). […]
[6] = Chemical stability (aqueous stability assay ASTA); type: physicochemical; conditions: aqueous buffer, 37 °C
Experimental: Chemical Stability (= Aqueous Stability Assay ASTA)
ASTA is a fully automated assay to determine the 2 h stability of a molecule in aqueous conditions, over the pH range 1–10. Five different pH values are used and the solutions are heated at 37 °C. A compound is classified unstable if, after 2 h, less than 90% of the initial concentration can be found. Samples are first prepared on incubation plates and shaken initially for 10 min at 37 °C.
Solutions are then transferred to a filter plate (Millipore MSGVN2250, pore size 0.22 µm) and filtrated into V-bottom plates (from ABGene, AB-0800) that are heat-sealed prior to HPLC analysis. The procedure is performed a second time. However, the incubation time at 37 °C for the second plate is increased by 2 h. Samples are taken at time point 0 and 2 h and analyzed by HPLC. […]

[7] = Saturation (thermodynamic) solubility in buffer, FaSSIF, FeSSIF; type: physicochemical; conditions: thermodynamic from solid
Experimental: (§1) Saturation Solubility (= Thermodynamic Solubility)
(§2) Approximately 8.6 mg test compound per milliliter solvent/vehicle was stirred in HPLC vials (9 × 12 × 32 mm, Waters) at 350 rpm for 15 h. Samples of 10 µL each were taken and microscopically examined for presence of solid particles. If the active pharmacological ingredient (API) dissolved completely, more solid API was added, and stirring was continued for another 15 h. Addition of solid material was repeated up to 96 h or until residual solid particles could be detected. Samples of 0.5 mL were then transferred to Eppendorf Ultrafree filter tubes (Filter: PVDF 0.22 µm) and centrifuged at 14,500 rpm for 10 min. The filtrates were diluted in ethanol and analyzed for content by UPLC. The measurements were also conducted in 0.05 M aqueous phosphate buffer, fasted (FaSSIF), and fed (FeSSIF) simulated gastrointestinal fluid. […]

[8] = human and mouse liver microsomes; underlying data previously published; cited from earlier work
mouse CB2R = mouse CB2R (Mus musculus, UniProt P47936); test: cAMP assay, mouse CB2R (mouse spleen homogenate); type: biochemical
Chain of mouse CB2R (P47936 whole entry): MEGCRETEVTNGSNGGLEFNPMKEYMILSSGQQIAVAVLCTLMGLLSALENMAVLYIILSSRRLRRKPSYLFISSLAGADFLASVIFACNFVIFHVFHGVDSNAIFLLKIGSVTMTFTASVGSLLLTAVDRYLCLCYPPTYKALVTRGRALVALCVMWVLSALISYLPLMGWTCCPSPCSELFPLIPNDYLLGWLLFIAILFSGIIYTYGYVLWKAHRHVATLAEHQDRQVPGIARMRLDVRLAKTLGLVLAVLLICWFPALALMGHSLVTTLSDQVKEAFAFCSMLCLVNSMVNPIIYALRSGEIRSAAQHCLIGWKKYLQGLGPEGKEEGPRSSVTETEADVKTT
Experimental: The effect of ligands on the forskolin-stimulated accumulation of cAMP was determined using the LANCE ULTRA cAMP kit as per the manufacturer’s instruction (Perkin-Elmer Life Sciences, Boston, MA, USA).
For mouse CB2R cAMP assays, mouse spleen was resuspended in 50 mM of Tris-HCl (pH 7.4), then homogenized with a Potter homogenizer and centrifuged at 1000× g for 10 min. The supernatants were incubated for 30 min with 1-methyl-3-isobutylxanthine (IBMX), then forskolin was added in the presence or absence of ligands. The supernatants were incubated for 30 min in ATP Regeneration Buffer (50 mM HEPES, pH 7.4, 10 mM phosphocreatine, 10 units/mL creatine phosphokinase, 10 μM GTP, 200 μM ATP, 10 mM MgCl2, 250 μM IBMX), and the reaction was stopped by adding lysis buffer. Time-resolved fluorescence was measured with a Victor V Multilabel counter (Perkin-Elmer Life Sciences, Boston, MA, USA).

human CB1R = target: T1, human CB1R (Homo sapiens, UniProt P21554); conditions: [3H]-CP55940 displacement; * previously published; read-out: hCB1R: Ki; cited from earlier work
T1 construct: host or cells: CHO
T1 sequence (P21554 whole entry): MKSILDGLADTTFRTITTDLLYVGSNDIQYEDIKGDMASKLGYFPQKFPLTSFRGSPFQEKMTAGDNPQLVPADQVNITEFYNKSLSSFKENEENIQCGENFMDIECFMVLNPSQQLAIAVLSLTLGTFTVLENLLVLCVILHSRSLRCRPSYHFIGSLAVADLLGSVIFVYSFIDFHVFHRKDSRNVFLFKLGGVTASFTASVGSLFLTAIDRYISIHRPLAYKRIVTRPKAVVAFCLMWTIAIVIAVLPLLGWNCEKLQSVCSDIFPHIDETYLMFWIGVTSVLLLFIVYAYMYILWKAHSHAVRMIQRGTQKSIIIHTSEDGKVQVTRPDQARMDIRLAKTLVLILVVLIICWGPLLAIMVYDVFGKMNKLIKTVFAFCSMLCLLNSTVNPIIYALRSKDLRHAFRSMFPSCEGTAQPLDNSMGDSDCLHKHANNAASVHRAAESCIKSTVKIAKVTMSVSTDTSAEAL

mouse P-gp = conditions: cited from earlier work
[9] = Saturation solubility in selected solvents/vehicles; type: physicochemical; conditions: for solubility: thermodynamic from solid, n = 1; for pH of solution in HP-beta-CD 15% / pH of solution in PEG400 30% / pH of solution in Mixed Micelles / pH of solution in Tocrisolve: solubility sample
Experimental: as §1, §2

human CB2R [10] = target: T2, human CB2R (Homo sapiens, UniProt P34972); conditions: * previously published, cited from earlier work
T2 construct: bgal (beta-galactosidase fragment of the PathHunter system, named only in the cell line's name); host or cells: CHO-K1 (CHOK1hCB2_bgal)
T2 sequence (P34972 whole entry, the tested form may be a part): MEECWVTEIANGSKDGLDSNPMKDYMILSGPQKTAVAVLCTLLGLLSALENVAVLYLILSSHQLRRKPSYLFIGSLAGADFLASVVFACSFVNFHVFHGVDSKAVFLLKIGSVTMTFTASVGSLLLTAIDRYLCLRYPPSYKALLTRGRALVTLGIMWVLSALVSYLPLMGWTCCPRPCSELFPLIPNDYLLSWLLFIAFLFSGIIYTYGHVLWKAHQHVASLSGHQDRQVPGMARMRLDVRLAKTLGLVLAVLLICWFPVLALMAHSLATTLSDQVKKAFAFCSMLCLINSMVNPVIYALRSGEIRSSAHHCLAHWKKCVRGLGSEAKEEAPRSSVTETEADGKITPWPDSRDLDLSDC

CYP2C9 = CYP2C9 (Homo sapiens, UniProt P11712); test: Cytochrome P450 inhibition assay, CYP2C9; type: in vitro ADME; conditions: read-out: IC50 CYP2C9
Chain of CYP2C9 (P11712 whole entry): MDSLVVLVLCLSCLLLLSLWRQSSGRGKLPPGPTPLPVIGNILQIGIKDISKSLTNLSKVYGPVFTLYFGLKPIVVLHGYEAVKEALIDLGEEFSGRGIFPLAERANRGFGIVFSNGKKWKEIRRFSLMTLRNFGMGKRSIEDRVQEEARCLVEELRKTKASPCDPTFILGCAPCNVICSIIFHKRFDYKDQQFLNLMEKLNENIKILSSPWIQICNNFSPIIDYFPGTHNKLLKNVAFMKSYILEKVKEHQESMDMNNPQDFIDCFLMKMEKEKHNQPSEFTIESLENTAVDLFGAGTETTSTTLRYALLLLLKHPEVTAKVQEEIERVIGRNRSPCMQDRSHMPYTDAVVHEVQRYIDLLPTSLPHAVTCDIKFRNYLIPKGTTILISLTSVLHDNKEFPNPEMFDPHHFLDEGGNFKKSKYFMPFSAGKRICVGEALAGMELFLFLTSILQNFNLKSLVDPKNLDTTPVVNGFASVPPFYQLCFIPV

CYP3A4 = CYP3A4 (Homo sapiens, UniProt P08684); test: Cytochrome P450 inhibition assay, CYP3A4; type: in vitro ADME; conditions: read-out: IC50 CYP3A4
Chain of CYP3A4 (P08684 whole entry): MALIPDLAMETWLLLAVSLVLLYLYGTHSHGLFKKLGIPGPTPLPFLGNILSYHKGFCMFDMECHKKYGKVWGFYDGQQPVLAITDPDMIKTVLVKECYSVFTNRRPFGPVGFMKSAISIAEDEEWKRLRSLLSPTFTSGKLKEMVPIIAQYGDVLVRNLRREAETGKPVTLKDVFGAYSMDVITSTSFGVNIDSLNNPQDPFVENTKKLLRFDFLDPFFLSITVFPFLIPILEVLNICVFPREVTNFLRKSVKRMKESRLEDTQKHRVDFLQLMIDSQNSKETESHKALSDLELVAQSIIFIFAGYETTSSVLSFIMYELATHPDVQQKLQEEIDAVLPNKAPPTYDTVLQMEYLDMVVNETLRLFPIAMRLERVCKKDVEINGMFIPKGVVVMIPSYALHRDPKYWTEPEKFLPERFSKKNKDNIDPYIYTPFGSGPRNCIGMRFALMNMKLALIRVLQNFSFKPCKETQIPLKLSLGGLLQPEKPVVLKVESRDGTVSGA

[11] = phosphate buffer pH 6.5; * previously published; cited from earlier work
human CB2R [12] = target: T2, human CB2R; conditions: cited from earlier work
[13] = oral, HU308 5 mg/kg, others 3 mg/kg
[14] = pH 1, 2 h, read-out: Chemical Stability in Aqueous Buffer at pH 1 (% remaining after 2 h at 37 °C)
[15] = pH 4, 2 h, read-out: Chemical Stability in Aqueous Buffer at pH 4 (% remaining after 2 h at 37 °C)
[16] = pH 6.5, 2 h, read-out: Chemical Stability in Aqueous Buffer at pH 6.5 (% remaining after 2 h at 37 °C)
[17] = pH 8, 2 h, read-out: Chemical Stability in Aqueous Buffer at pH 8 (% remaining after 2 h at 37 °C)
[18] = pH 10, 2 h, read-out: Chemical Stability in Aqueous Buffer at pH 10 (% remaining after 2 h at 37 °C)
[19] = underlying data previously published
[20] = aqueous with cosolvent or surfactant or cyclodextrin, in demin. water, HU308 crystalline material, read-out: Solubility in HP-beta-CD 15%
[21] = aqueous with cosolvent or surfactant or cyclodextrin, in demin. water, HU308 crystalline material, read-out: Solubility in PEG400 30%
[22] = aqueous with cosolvent or surfactant or cyclodextrin, RO6871085 as hydrochloride salt, HU308 crystalline material, > = saturation not achieved, read-out: Solubility in Tocrisolve
[23] = oil or lipid, RO6871085 as hydrochloride salt, HU308 crystalline material, > = saturation not achieved, read-out: Solubility in MCT (Miglyol 812)
[24] = pH 6, aqueous with cosolvent or surfactant or cyclodextrin, 200 mM glycocholic acid, 200 mM lecithin in water for injection, pH 6, RO6871085 as hydrochloride salt, read-out: Solubility in Mixed Micelles
[25] = RO6871085 as hydrochloride salt

| Structure (SMILES) | Clearance (CL) [1] | Vss [1] | LogD (at pH 7.4) [2] | Hepatocyte Clearance human [3] | GSH Adduct Formation in Human Liver Microsomes [5] | remaining at 2 h [6, 14] | remaining at 2 h [6, 15] | remaining at 2 h [6, 16] | remaining at 2 h [6, 17] | remaining at 2 h [6, 18] | clearance in human as well as mouse microsomes (class in words) [8] | Ki (human CB1R) | solubility in Tocrisolve 100 [9] | solubility [9, 20] | solubility [9, 21] | solubility [9, 22] | solubility [9, 23] | solubility [9, 24] | pH of solution in HP-beta-CD 15% [9] | pH of solution in PEG400 30% [9] | also measured |
| --- | --- | --- | --- | --- | --- | --- | --- | --- | --- | --- | --- | --- | --- | --- | --- | --- | --- | --- | --- | --- | --- |
| CNC(=O)[C@@H](NC(=O)c1cc(OCC2(C)COC2)c(C2CC2)cn1)C(C)(C)C [RO6851228, 5-Cyclopropyl-N-[(2S)-3,3-dimethyl-1-(methylamino)-1-oxobutan-2-yl]-4-[(3-methyloxetan-3-yl)methoxy]pyridine-2-carboxamide] | 73.8 mL/min/kg | 3.1 L/kg | 3.21 | 12 μL/min/Mio cells | no adduct | 93% | 100% | 99% | 100% | 100% | low to medium clearances | 6.49 µM | good solvent | 35500 µg/mL (≈ 91100 µM) | 5900 µg/mL (≈ 15100 µM) | 15000 µg/mL | > 19000 µg/mL | > 1600 µg/mL | 7.6 | 7.4 | AUCINF D [1]: 226 ng·kg·h/mL/mg; T1/2 [1]: 1.08 h; P-glycoprotein-Mediated Efflux Extraction Ratio human (human P-gp): 6.5; F ([4]; oral 3 mg/kg): 31%; T1/2 [4, 13]: 1.17 h; Tmax [4, 13]: 15 min; solubility thermodynamic ([7]; FaSSIF pH 6.5, read-out: Thermodynamic Solubility in FaSSIF (pH 6.5)): 421 µg/mL (≈ 1080 µM); solubility thermodynamic ([7]; FeSSIF pH 5.5, read-out: Thermodynamic Solubility in FeSSIF (pH 5.5)): 243 µg/mL (≈ 624 µM); solubility thermodynamic ([7]; aqueous phosphate buffer pH 6.5, read-out: Thermodynamic Solubility in Aqueous Buffer (pH 6.5)): 497 µg/mL (≈ 1280 µM); hCB2R cAMP EC50/mouse CB2R cAMP EC50 ratio (mouse CB2R): 7; P-glycoprotein-Mediated Efflux Extraction Ratio mouse (mouse P-gp; mouse P-gp, * previously published): 25.1; P-gp substrate, mouse (mouse P-gp; [19]): strong P-gp substrate; pH of solution in Mixed Micelles [9, 25]: 6.6; pH of solution in Tocrisolve [9, 25]: 7.3; Ki (human CB2R [10]; [3H]-CP55940 displacement, read-out: hCB2R: Ki): 45 nM; hCB1R Ki/hCB2R Ki (human CB2R [10]; binding selectivity): 147 *; IC50 (CYP2C9): > 50 µM; IC50 (CYP3A4): > 50 µM |
| CC(C)(C)c1nc(N2CC[C@H](O)C2)c2nnn(Cc3nnnn3C3CC3)c2n1 [RO6871304, (3S)-1-{5-tert-butyl-3-[(1-cyclopropyl-1H-tetrazol-5-yl)methyl]-3H-[1,2, 3]triazolo[4,5-d]pyrimidin-7-yl}pyrrolidin-3-ol] | 36.5 mL/min/kg | 0.95 L/kg | 2.78 | 15 μL/min/Mio cells | no adduct | 100% | 100% | 100% | 99% | 100% | low to medium clearances | > 10 µM | considerably lower | 7200 µg/mL (≈ 18700 µM) | 200 µg/mL (≈ 520 µM) | 1300 µg/mL | 2300 µg/mL | > 1800 µg/mL | 6.0 | 6.1 | Kinetic Solubility [11]: 162 ± 2 µg/mL; hCB2R: beta arrestin efficacy (human CB2R [12]; * previously published): 119%; EC50 (human CB2R [12]; * previously published, read-out: hCB2R: beta arrestin EC50): 21 nM; functional behaviour in hCB2R β-arrestin assay (human CB2R [12]; [19]): full agonist; mouse CB2R: cAMP efficacy (mouse CB2R): 101%; EC50 (mouse CB2R; read-out: mouse CB2R: cAMP EC50): 0.5 nM; pH of solution in Mixed Micelles [9, 25]: 6.6; pH of solution in Tocrisolve [9, 25]: 5.7; IC50 (CYP2C9): 16 µM; IC50 (CYP3A4): > 50 µM |
